This passage reports Activity results from ChEMBL document CHEMBL1150689, “New dihydroalkylhexenones from Lannea edulis” (J Nat Prod, 2003).

The structures appear in SMILES notation. The source made the active and inactive calls. No cut-off for these calls is given here.

The assay can be described thus: DPPH radical scavenging activity at 10 ug after 30 mins by TLC. The class given is functional.
For `CC/C=C/CCCCCCCCCCCCCc1cccc(O)c1`, the result was Active.
Regarding `CC/C=C/CCCCCCCCCCCCCCC[C@@]1(O)CC(=O)C=C[C@@H]1O`, the outcome was inactive.
To `CC/C=C/CCCCCCCCCCCCCCC[C@]1(O)CC(=O)C=C[C@@H]1O` belongs “inactive”; to `CC/C=C/CCCCCCCCCCCCC[C@@]1(O)CC(=O)C=C[C@@H]1O`, “inactive”.
